Data on 2 molecules can be found in patent publication EP0525814A1, “Use of di-tertbutylhydroxyphenyl derivatives for the therapy of inflammatory conditions of the gastrointestinal tract” (BOEHRINGER MANNHEIM GMBH, priority 1991, dated 1993).

The subject of the assay is Akute Kolitis. Description: Acetic acid-induced acute colitis in rats, morphological evaluation of the mucosa by image analysis. Conditions: rat, 3 x 200 mg/kg p.o.; for Anteil von Mukosabereichen Schädigungsstufe 0 (ohne Befund) an der Gesamtfläche des untersuchten Darmbereichs / Anteil von Mukosabereichen Schädigungsstufe 1 (Schwellung des Gewebes mit leichter Rötung) an der Gesamtfläche des untersuchten Darmbereichs / Anteil von Mukosabereichen Schädigungsstufe 2 (starke Rötung des Gewebes mit Einblutungen oder ulcerierenden Nekrosen) an der Gesamtfläche des untersuchten Darmbereichs: rectum and parts of distal colon, 3 days after induction with 5% acetic acid, mean ± spread. The format is in vivo, Ratten.

Where [1] appears, read: change versus control in words, p<0,01.

Method: Beispiel 1 und Probucol wurden in einer Dosierung von 200 mg/kg/d 3 mal oral verabreicht. Die Behandlung wurde einen Tag vor Entzündungsinduktion mit 5% Essigsäure begonnen. […] Das Ausmaß einer entzündlichen Reaktion im Darm wird durch Begutachtung des Mukosa-Zustandes und Klassifizierung nach festgelegten Parametern bestimmt.
Akute Kolitis wurde bei 24 h nüchternen Ratten durch rektale Instillation von 5% Essigsäure (1,5ml/Tier) über eine 8 cm lange Sonde induziert. Die morphologische Auswertung des Mukosazustandes aus dem Rektum und Teilen des distalen Kolons (ca. 8 cm) erfolgte am 3. Tag nach Entzündungsinduktion, nachdem die Tiere getötet worden waren. Beispiel 1 und Probucol wurden in einer Dosierung von 200 mg/kg/d 3 mal p.o. (2,5 ml/kg) verabreicht. Die erste Gabe erfolgte 24 h vor Essigsäure-Applikation. Kontrolltieren wurde das Substanzlösungsmittel (20% DMSO in Öl) verabreicht.
Die morphologische Auswertung erfolgte an einem computergeschützten Bildanalyse-System. Es wurde der Anteil von entzündetem Gewebe an der Gesamtdarmoberfläche bestimmt. Folgende Schädigungsstufen wurden unterschieden: • - Stufe 0 : ohne Befund • - Stufe 1 : Schwellung des Gewebes mit leichter Rötung • - Stufe 2 : starke Rötung des Gewebes mit Einblutungen oder ulcerierenden Nekrosen

As for `CC(C)(Sc1cc(C(C)(C)C)c(O)c(C(C)(C)C)c1)Sc1cc(C(C)(C)C)c(O)c(C(C)(C)C)c1` [Probucol, reference compound], the “Anteil von Mukosabereichen Schädigungsstufe 0 (ohne Befund) an der Gesamtfläche des untersuchten Darmbereichs” value is recorded as 0,12 ± 0,09%, the “Anteil von Mukosabereichen Schädigungsstufe 1 (Schwellung des Gewebes mit leichter Rötung) an der Gesamtfläche des untersuchten Darmbereichs” value is listed as 52,78 ± 9,36% and the “Anteil von Mukosabereichen Schädigungsstufe 2 (starke Rötung des Gewebes mit Einblutungen oder ulcerierenden Nekrosen) an der Gesamtfläche des untersuchten Darmbereichs” value was 47,19 ± 9,36%. Moreover, the “Einfluß auf die durch Essigsäure-Applikation hervorgerufenen Mukosaschädigungen” value (result in words) was “keinen Einfluß”.
As to `CC(C)(C)c1cc(CCNC(=O)CCc2cc(C(C)(C)C)c(O)c(C(C)(C)C)c2)cc(C(C)(C)C)c1O` [Beispiel 1], the “Anteil von Mukosabereichen Schädigungsstufe 0 (ohne Befund) an der Gesamtfläche des untersuchten Darmbereichs” value was 17,20 ± 8,93 %, the “Anteil von Mukosabereichen Schädigungsstufe 1 (Schwellung des Gewebes mit leichter Rötung) an der Gesamtfläche des untersuchten Darmbereichs” value is 66,96 ± 8,31 % and the “Anteil von Mukosabereichen Schädigungsstufe 2 (starke Rötung des Gewebes mit Einblutungen oder ulcerierenden Nekrosen) an der Gesamtfläche des untersuchten Darmbereichs” value is 15,75 ± 6,24 %. Further, under setting [1], the “nur noch geschwollene Gewebebereiche (Schädigungsstufe 1)” value is reported as “Zunahme” and the “stark geschädigte Darmanteile (Schädigungsstufe 2)” value is “deutlicher Abnahme”. The “größere, morphologisch normale Gewebebereiche (Schädigungsstufe 0)” value (result in words, p<0,01 versus control) is “nachweisbar”.
